This is an account of results in US20120252865A1, “CARBAMATE DERIVATIVES IN PARTICULAR FOR THE TREATMENT OF NEUROLOGICAL DISORDERS” (SIGMA-TAU INDUSTRIE FARMACEUTICHE RIUNITE S.P.A., priority 2009, published 2012).

The structures appear in SMILES notation. Bounds are passed on as bounds.

The subject of assay [1] is pain. The settings on record: Kathuria S., et al, Nat. Med., 2003; cited from earlier work.
For assay [2], the system named is mechanical hyperalgesia. Briefly: Paw withdrawal test for mechanical hyperalgesia (Randall-Selitto analgesimeter). Format: in vivo. The following applies: rat. The protocol:
The paw withdrawal test was used to assess mechanical hyperalgesia. The nociceptive threshold, expressed in grams, was measured by applying increasing pressure to the left and right hind paws using a Randall-Selitto analgesimeter (Ugo Basile, Varese, Italy). The parameter used to quantify the nociceptive threshold was defined as the pressure (grams) at which the rat withdrew its paw. Rats were habituated to the testing procedures and handling by the investigator in the week prior to the experiment.
Dose response experiments at 10, 30 and 100 mg/kg were also conducted with ST4068, ST3911 and ST3913.

Assay [3] has as its system pain. The settings on record: Kathuria S., et al, Nat. Med., 2003; cited from earlier work. The source holds these as a separate data set.
Assay [4] has as its system anxiety. The following applies: Kathuria S., et al, Nat. Med., 2003; cited from earlier work.
Assay [5] has as its system DAGL. The assay can be described thus: Selectivity profile: DAGL. Format: biochemical. The settings on record: tested at a multiple of the FAAH IC50. The protocol:
(§1) The compounds of the present invention were also evaluated with regard to their selectivity profile against the following targets: AMT, NAPE-PLD, MAGL, DAGL, CB1/CB2 and TRPV1 according to the procedures described in Maccarrone M., et al., J. Biol. Chem., 2000, 275, 13484, Fezza F., et al., Anal Biochem., 2005, 339, 113, Dinh T. P., et al., 2002, Proc. Natl. Acad. Sci. 99, 10819, Bisogno T., et al., 2003, J. Cell Biol., 163, 463, Maccarrone M., et al., J. Biol. Chem., 2000, 275, 31938, Ross R. A., et al., Br. J. Pharmacol., 2001, 132, 631.

For assay [6], the target named is CB2R (Homo sapiens, UniProt P34972). Briefly: Selectivity profile: CB2R. Format: binding. The settings on record: tested at a multiple of the FAAH IC50. The protocol:
as §1

In assay [7] the test system is TRPV1. The assay can be described thus: Selectivity profile: TRPV1. The following applies: tested at a multiple of the FAAH IC50. Format: binding. The protocol: as §1
In assay [8] the target is T1, MAGL (Homo sapiens, UniProt Q99685).
T1 sequence (Q99685 1-303): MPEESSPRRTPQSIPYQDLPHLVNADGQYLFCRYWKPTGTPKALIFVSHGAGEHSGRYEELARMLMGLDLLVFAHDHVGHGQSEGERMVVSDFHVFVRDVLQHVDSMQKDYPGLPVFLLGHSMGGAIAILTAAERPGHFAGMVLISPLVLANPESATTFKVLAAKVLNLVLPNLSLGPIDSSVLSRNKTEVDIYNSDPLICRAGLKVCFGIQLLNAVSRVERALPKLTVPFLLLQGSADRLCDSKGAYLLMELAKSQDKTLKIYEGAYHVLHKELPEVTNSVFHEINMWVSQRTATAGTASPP
The assay can be described thus: Selectivity profile: MAGL. Format: biochemical. The following applies: tested at a multiple of the FAAH IC50. The method, then: as §1

Assay [9] addresses T2, fatty acid amide hydrolase (FAAH, EC 3.5.1.4) (Mus musculus, UniProt O08914).
T2 construct: The reaction was initiated by the addition of mouse brain homogenate (40 μg); from tissue; host or cells: mouse brain homogenate
T2 sequence (O08914 1-579): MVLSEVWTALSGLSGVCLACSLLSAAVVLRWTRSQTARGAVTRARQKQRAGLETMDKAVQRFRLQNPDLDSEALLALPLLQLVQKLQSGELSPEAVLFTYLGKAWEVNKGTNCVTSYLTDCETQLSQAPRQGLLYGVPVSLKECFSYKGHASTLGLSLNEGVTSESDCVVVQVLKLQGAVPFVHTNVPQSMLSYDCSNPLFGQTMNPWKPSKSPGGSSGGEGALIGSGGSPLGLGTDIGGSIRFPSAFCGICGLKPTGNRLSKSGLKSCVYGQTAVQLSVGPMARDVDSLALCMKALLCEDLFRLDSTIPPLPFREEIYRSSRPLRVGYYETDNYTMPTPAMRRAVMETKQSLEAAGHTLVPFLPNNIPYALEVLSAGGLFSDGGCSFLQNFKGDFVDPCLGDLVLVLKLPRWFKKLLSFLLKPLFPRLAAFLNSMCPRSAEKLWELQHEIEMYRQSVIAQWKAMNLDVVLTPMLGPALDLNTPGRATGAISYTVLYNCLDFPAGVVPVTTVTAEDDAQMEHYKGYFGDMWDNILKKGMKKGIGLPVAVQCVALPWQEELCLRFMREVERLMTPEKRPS
The assay can be described thus: FAAH assay: release of [1-14C]AA from [1-14C]AnNH by RP-HPLC. Format: biochemical. The settings on record: mouse brain homogenate. The method, then: The compounds of the present invention show affinity and inhibit the enzymatic activity of the fatty acid amide hydrolase enzyme.
The assay of FAAH (EC 3.5.1.4) was performed by measuring the release of [1-^14C]AA from [1-^14C]AnNH (52 mCi/mmol), using RP-HPLC. Also [^3H]AnNH (205 Ci/mmol) could be used as substrate, measuring the release of [^3H]AA under the same experimental conditions described below for [1-^14C]AnNH. Compounds of the invention, at various concentrations, were added in 200 μl hydrolase assay buffer (50 mM Tris-HCl, pH 9.0), in 2-ml Eppendorf tubes, 20 min before adding [1-^14C]AnNH2, up to a concentration of 10 μM. The reaction was initiated by the addition of mouse brain homogenate (40 μg), and after incubation at 37° C. for 15 min it was stopped by the addition of 800 μl ice-cold methanol/chloroform (2:1, v/v) with vortexing. This mixture was allowed to stand at room temperature for 30 min, then 240 μl chloroform and 240 μl water were added with vortexing. After 10 min at room temperature, the mixture was centrifuged at 3000 g for 5 min, the upper aqueous layer was removed by suction and the lower organic phase was dried by spinning the samples in a DNA MINI speedvac (Heto-Holten, Denmark), at 100 mbar and 30° C. for 30 min. The residue was dissolved into 50 μl methanol and subjected to RP-HPLC analysis for AA quantitation, as detailed below. FAAH specific activity was expressed as pmol AA released/min/mg protein. Kinetic studies were performed by Lineweaver-Burk analysis, using [1-^14C]AnNH, [1-^14C]ODNHEtOH, or [1-^14C]ODNH2 in the concentration range 0-12 μM. Fitting of the experimental points by a linear regression programme (Kaleidagraph 3.0) yielded straight lines with r values >0.97.

In assay [10] the target is NAPE-PLD (Homo sapiens, UniProt Q6IQ20). Briefly: Selectivity profile: NAPE-PLD. The settings on record: tested at a multiple of the FAAH IC50. Format: biochemical. The protocol: as §1
Assay [11] concerns AMT. The assay can be described thus: Selectivity profile: AMT. Format: cell-based. The protocol: as §1
Assay [12] addresses CB1R (Homo sapiens, UniProt P21554). The assay can be described thus: Selectivity profile: CB1R. Format: binding. The settings on record: tested at a multiple of the FAAH IC50. The method, then: as §1

Sequence of CB2R (P34972 whole entry): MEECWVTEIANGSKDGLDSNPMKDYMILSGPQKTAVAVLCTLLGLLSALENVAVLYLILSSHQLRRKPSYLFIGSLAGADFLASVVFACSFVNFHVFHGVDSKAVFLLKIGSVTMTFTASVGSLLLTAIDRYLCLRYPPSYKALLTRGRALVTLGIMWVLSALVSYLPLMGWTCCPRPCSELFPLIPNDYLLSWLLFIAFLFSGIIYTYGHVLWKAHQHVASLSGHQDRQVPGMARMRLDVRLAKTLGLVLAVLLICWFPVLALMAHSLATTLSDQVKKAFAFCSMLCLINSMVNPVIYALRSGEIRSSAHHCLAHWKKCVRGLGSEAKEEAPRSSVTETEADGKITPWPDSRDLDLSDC
Sequence of NAPE-PLD (Q6IQ20 whole entry, species assumed): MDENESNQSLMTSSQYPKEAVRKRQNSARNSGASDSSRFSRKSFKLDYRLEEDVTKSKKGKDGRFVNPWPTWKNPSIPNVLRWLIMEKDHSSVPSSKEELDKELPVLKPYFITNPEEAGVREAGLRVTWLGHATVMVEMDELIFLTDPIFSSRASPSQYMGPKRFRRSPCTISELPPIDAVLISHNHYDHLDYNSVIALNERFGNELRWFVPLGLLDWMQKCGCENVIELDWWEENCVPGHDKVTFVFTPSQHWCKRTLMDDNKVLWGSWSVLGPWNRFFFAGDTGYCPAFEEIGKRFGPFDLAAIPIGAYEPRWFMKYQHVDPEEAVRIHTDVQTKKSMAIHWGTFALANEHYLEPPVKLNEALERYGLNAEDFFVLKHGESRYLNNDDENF
Sequence of CB1R (P21554 whole entry): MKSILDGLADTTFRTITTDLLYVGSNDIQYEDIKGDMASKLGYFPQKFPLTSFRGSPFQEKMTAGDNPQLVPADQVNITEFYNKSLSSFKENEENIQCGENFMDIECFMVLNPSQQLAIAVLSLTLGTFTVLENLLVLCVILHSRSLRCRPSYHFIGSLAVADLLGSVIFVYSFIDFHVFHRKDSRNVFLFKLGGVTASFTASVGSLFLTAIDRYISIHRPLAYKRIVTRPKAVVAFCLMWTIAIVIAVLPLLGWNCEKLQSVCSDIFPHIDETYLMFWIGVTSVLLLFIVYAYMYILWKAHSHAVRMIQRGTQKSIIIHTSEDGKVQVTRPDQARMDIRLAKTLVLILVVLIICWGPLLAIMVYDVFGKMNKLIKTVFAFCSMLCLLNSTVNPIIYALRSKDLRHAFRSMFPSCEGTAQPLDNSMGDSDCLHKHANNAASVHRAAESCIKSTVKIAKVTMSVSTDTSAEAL

As to `NC(=O)c1cccc(-c2cccc(OC(=O)NC3CCCCC3)c2)c1` [URB597], the “analgesic efficacy in the rat formalin test” value in [1] is “analgesic efficacy”. Also, in [2] (50 mg/kg (FIG. 1)), the “analgesic activity (nociceptive threshold, paw withdrawal)” value is “did not show any activity”. Further, in [3], the “analgesic efficacy in the rat hot plate test” value was “analgesic efficacy”. Moreover, the “efficacy in the zero plus maze animal model of anxiety” value in assay [4] is “efficacious”.

In general, IC50 refers to the concentration that inhibits the measured activity by half. Lower therefore signals inhibition by little substance. In general, Ki refers to a dissociation constant, usually derived from enzyme kinetics or from competition with a known ligand. A higher Ki goes with lower affinity. As for `NC(=O)c1ccn(-c2cccc(OC(=O)NCCCCCCc3ccccc3)c2)c1` [Example 4, (6-phenyl-hexyl)-carbamic acid 3-(3-carbamoyl-pyrrol-1-yl)-phenyl ester], the “inhibitory activity on DAGL” value in assay [5] is “−−−− (1000 times [IC50] with an inhibitory activity on the target <60%)”. The “inhibitory activity on CB2R” value in assay [6] is “−−−− (1000 times [IC50] with an inhibitory activity on the target <60%)”. In addition, the “analgesic activity, dose response” value in assay [2] (30 mg/kg (FIGS. 2, 3 and 4)) is on record as “did exert analgesic activity”; in assay [2] (100 mg/kg, compared with 30 mg/kg (FIGS. 2, 3 and 4)), “higher effect”. Also, the “analgesic activity (nociceptive threshold, paw withdrawal)” value in [2] (acute oral treatment, 30 mg/kg (FIG. 1)) was “significant analgesic activity”. The “inhibitory activity on TRPV1” value in [7] was “−−−− (1000 times [IC50] with an inhibitory activity on the target <60%)”. Also, the “inhibitory activity on MAGL” value in assay [8] was “−−−− (1000 times [IC50] with an inhibitory activity on the target <60%)”. For the same molecule, in assay [9] (37° C., 15 min, pH 9.0), the 50% inhibitory concentration (IC50) is less than 0.01 µM. Further, the Ki in assay [9] (Lineweaver-Burk analysis) is less than 0.01 µM. The “inhibitory activity on NAPE-PLD” value in assay [10] is “−−−− (1000 times [IC50] with an inhibitory activity on the target <60%)”. In [11], the “AMT, % @ 1 μM” value worked out at 80% @ 1 μM. Moreover, the “inhibitory activity on CB1R” value in assay [12] is “−−−− (1000 times [IC50] with an inhibitory activity on the target <60%)”.
